In US12240862B2, “Inhibitors of peptidylarginine deiminases” (Gilead Sciences, Inc., priority 2020, dated 2025):

Each compound was assayed against T1, human PAD4 (Homo sapiens, UniProt Q9UM07) (assay: In vitro PAD4 BAEE biochemical assay). Settings: human PAD4, BAEE substrate; 5 nM PAD4, 2 mM calcium chloride, 3 mM BAEE; geometric mean of multiple experiments.
T1 construct: human PAD4 (NM_012387), A2P663, was PCR amplified; His-SUMO (N, cleaved yes); made in house; host or cells: E. coli BL21(DE3)
T1 sequence (Q9UM07 2-663): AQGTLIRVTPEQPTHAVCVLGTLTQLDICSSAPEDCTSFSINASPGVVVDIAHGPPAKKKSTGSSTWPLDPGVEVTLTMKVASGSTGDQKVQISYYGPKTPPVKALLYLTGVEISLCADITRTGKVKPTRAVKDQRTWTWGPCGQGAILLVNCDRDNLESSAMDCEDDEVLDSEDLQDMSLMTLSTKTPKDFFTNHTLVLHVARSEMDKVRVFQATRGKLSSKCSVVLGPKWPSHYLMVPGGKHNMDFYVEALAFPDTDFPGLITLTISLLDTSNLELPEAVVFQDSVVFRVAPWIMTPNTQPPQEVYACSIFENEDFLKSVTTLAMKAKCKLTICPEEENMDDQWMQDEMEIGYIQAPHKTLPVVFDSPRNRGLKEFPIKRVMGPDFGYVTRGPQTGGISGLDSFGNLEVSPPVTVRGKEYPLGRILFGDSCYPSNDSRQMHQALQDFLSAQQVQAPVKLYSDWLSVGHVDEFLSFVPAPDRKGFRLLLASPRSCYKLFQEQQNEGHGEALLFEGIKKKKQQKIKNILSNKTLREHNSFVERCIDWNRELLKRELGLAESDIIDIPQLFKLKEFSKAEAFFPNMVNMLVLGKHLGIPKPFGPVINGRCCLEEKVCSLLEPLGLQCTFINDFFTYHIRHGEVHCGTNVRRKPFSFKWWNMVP
How it was run: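 Ammonia generated from BAEE serves as the readout, measured by o-phthalaldehyde after EDTA termination. Final conditions: 5 nM human PAD4 (SUMO tag cleaved), 2 mM CaCl2, 3 mM BAEE, pH 7.6 MOPS buffer, 25 °C for 2 h following a 30-min compound preincubation.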
In the case of `COc1cc(C(=O)N2[C@H]3CC[C@@H]2[C@H](N)C3)cc2nc(-c3cc4ccc([C@@H](C)NC(=O)C5CC56CC6)nc4n3CC3CC3)c(C)n12` (some centres unmarked) [Example 69, ~{N}-[(1~{R})-1-[2-[7-[(1~{R},2~{R},4~{S})-2-amino-7-azabicyclo [2.2.1]heptane-7-carbonyl]-5-methoxy-3-methylimidazo [1,2-a]pyridin-2-yl]-1-(cyclopropylmethyl)pyrrolo[2,3-b]pyridin-6-yl]ethyl]spiro[2.2] pentane-2-carboxamide], the IC50 is reported as 0.041 µM.
With `COc1cc(C(=O)N2[C@H]3CC[C@@H]2[C@H](N)C3)cc2nc(-c3cc4ccc([C@@H](C)NC(=O)C(C)(C)CO)nc4n3CC3CC3)c(C)n12` [Example 134] the IC50 was 0.0665 µM.
`COc1cc(C(=O)N2[C@H]3CC[C@@H]2[C@H](N)C3)cc2nc(-c3cc4ccc([C@@H](C)NC(=O)C5(O)CC5)nc4n3CC3CC3)c(C)n12` [Example 97, ~{N}-[(1~{R})-1-[2-[7-[(1~{R},2~{R},4~{S})-2-amino-7-azabicyclo[2.2.1]heptane-7-carbonyl]-5-methoxy-3-methylimidazo [1,2-a]pyridin-2-yl]-1-(cyclopropylmethyl)pyrrolo [2,3-b]pyridin-6-yl]ethyl]-1-hydroxycyclopropane-1-carboxamide] was tested, and the IC50 was 0.0306 µM.
`COc1cc(C(=O)N2[C@H]3CC[C@@H]2[C@H](N)C3)cc2nc(-c3cc4ccc([C@@H](C)NC(=O)CC(C)(C)OC)nc4n3CC3CC3)c(C)n12` [Example 39, ~{N}-[(1~{R})-1-[2-[7-[(1~{R},2~{R},4~{S})-2-amino-7-azabicyclo[2.2.1]heptane-7-carbonyl]-5-methoxy-3-methylimidazo[1,2-a]pyridin-2-yl]-1-(cyclopropylmethyl)pyrrolo[2,3-b]pyridin-6-yl]ethyl]-3-methoxy-3-methylbutanamide] gave an IC50 of 0.0862 µM.
`COc1cc(C(=O)N2C[C@@H]3CCN[C@@H]3C2)cc2nc(-c3cc4ccc([C@@H](C)NC(=O)C56CC(F)(C5)C6)nc4n3CC3CC3)c(C)n12` [Example 20, ~{N}-[(1~{R})-1-[2-[7-[(3~{a}~{S}, 6~{a}~{S})-2,3,3~{a}, 4,6,6~{a}-hexahydro-1~{H}-pyrrolo[3,4-b]pyrrole-5-carbonyl]-5-methoxy-3-methylimidazo[1,2-a]pyridin-2-yl]-1-(cyclopropylmethyl)pyrrolo[2,3-b]pyridin-6-yl]ethyl]-3-fluorobicyclo[1.1.1] pentane-1-carboxamide] showed an IC50 of 3.86 µM.
For “~{N}-[(1~{R})-1-[2-[7- [(1~{R},2~{R},4~{S})-2- amino-7- azabicyclo[2.2.1]heptane- 7-carbonyl]-3-cyclopropyl- 5-methoxyimidazo [1,2-a]pyridin-2-yl]-1-(1- bicyclo[1.1.1] pentanylmethyl)pyrrolo [2,3-b]pyridin-6-yl]ethyl]- 3-fluorobicyclo[1.1.1] pentane-1-carboxamide [Example 487]”, the IC50 was 0.331 µM.
`COc1cc(C(=O)NC[C@H]2CCCCN2)cc2nc(-c3cc4ccc(N(C(F)F)S(C)(=O)=O)nc4n3CC3CC3)c(C)n12` [Example 295, 2-[1-(cyclopropylmethyl)-6-[difluoromethyl (methylsulfonyl)amino]pyrrolo[2,3-b]pyridin-2-yl]-5-methoxy-3-methyl-~{N}-[[(2~{R})-piperidin-2-yl]methyl] imidazo[1,2-a]pyridine-7-carboxamide] showed an IC50 of 27.2 µM.
Compound `COc1cc(C(=O)N2[C@H]3CC[C@@H]2[C@H](N)C3)cc2nc(-c3cc4ccc([C@@H](C)NC(=O)c5ccn(C(F)F)n5)nc4n3CC3CC3)c(C)n12` [Example 81, ~{N}-[(1~{R})-1-[2-[7-[(1~{R},2~{R},4~{S})-2-amino-7-azabicyclo[2.2.1]heptane-7-carbonyl]-5-methoxy-3-methylimidazo [1,2-a]pyridin-2-yl]-1-(cyclopropylmethyl)pyrrolo [2,3-b]pyridin-6-yl]ethyl]-1-(difluoromethyl)pyrazole-3-carboxamide] has an IC50 of 0.112 µM.
